Measurements reported in patent US7880007B2, “Bicyclic substituted phenyl piperidine modulators of muscarinic receptors” (Vertex Pharmaceuticals Incorporated, priority 2004, dated 2011).

Assays:
Assay type in all cases: cell-based
M1 muscarinic receptor = target: T1, M1 muscarinic receptor (Homo sapiens, UniProt P11229); assay: Functional mobilization of intracellular calcium (FLIPR), M1-CHO cells; settings: for M1 Activity: M1-CHO cells, calcium mobilization (FLIPR)
T1 construct: expressed in transfected cells; host or cells: CHO (M1-CHO)
T1 sequence (P11229 1-460): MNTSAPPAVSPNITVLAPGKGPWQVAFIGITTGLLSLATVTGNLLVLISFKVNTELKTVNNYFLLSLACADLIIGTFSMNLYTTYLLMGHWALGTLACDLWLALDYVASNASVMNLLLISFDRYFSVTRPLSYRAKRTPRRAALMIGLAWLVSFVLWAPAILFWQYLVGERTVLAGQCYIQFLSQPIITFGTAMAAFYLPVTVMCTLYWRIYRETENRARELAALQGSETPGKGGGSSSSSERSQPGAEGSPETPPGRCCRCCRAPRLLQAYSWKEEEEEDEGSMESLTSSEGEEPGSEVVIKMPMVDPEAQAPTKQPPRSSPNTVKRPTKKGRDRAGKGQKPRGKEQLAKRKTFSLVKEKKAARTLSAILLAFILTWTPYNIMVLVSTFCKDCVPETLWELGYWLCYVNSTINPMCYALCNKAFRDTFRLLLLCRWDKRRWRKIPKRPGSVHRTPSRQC
Summary of the method: (§1)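 Calcium mobilisation read by FLIPR over 60 s (ex 488/em 540 nm) in recombinant muscarinic CHO lines loaded with calcium dye plus 1 mM probenecid. Compounds tested as agonists alone, or as inhibitors against EC80 carbachol after 15 min pre-incubation or co-addition; 0.5% DMSO; efficacy scaled to carbachol maximal response.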

M3 muscarinic receptor = target: T2, M3 muscarinic receptor (Homo sapiens, UniProt P20309); assay: Functional mobilization of intracellular calcium (FLIPR), M3-CHO cells; settings: for M3 Activity: M3-CHO cells, calcium mobilization (FLIPR)
T2 construct: expressed in transfected cells; host or cells: CHO (M3-CHO)
Summary of the method: as §1

M2 muscarinic receptor = target: T3, M2 muscarinic receptor (Homo sapiens, UniProt P08172); assay: Functional mobilization of intracellular calcium (FLIPR), M2-CHO cells; settings: for M2 Activity: M2-CHO cells, calcium mobilization (FLIPR)
T3 construct: expressed in transfected cells; host or cells: CHO (M2-CHO)
T3 sequence (P08172 1-466): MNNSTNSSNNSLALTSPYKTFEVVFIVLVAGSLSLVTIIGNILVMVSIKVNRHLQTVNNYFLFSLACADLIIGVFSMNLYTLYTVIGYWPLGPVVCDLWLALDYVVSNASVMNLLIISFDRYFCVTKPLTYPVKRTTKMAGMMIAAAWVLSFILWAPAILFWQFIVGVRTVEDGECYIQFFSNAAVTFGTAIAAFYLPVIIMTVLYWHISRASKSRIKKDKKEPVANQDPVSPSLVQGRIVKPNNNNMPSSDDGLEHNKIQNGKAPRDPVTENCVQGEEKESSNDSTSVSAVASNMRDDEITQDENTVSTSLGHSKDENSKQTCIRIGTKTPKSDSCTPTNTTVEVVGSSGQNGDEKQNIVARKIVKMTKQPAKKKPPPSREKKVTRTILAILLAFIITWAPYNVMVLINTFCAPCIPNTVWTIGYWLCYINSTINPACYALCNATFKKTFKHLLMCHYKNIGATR
Summary of the method: as §1

M4 muscarinic receptor = target: T4, M4 muscarinic receptor (Homo sapiens, UniProt P08173); assay: Functional mobilization of intracellular calcium (FLIPR), M4-CHO cells; settings: for M4 Activity: M4-CHO cells, calcium mobilization (FLIPR)
T4 construct: expressed in transfected cells; host or cells: CHO (M4-CHO)
T4 sequence (P08173 1-479): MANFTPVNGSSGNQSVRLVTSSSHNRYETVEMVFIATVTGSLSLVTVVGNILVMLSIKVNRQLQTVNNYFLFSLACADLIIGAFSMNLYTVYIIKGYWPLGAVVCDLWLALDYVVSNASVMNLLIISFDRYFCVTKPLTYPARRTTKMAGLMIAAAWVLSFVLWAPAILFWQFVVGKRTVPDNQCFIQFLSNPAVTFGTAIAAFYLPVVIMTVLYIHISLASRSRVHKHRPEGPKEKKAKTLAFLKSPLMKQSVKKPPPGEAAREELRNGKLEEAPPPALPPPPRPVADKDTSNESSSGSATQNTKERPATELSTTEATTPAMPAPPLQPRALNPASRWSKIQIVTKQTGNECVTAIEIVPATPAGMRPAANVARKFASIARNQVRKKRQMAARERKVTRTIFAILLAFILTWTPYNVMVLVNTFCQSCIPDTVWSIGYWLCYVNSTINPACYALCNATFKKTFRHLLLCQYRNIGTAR
Summary of the method: as §1

[1] = 100% efficacy is the maximum response obtained with the Carbachol control

T2 sequence (P20309 whole entry): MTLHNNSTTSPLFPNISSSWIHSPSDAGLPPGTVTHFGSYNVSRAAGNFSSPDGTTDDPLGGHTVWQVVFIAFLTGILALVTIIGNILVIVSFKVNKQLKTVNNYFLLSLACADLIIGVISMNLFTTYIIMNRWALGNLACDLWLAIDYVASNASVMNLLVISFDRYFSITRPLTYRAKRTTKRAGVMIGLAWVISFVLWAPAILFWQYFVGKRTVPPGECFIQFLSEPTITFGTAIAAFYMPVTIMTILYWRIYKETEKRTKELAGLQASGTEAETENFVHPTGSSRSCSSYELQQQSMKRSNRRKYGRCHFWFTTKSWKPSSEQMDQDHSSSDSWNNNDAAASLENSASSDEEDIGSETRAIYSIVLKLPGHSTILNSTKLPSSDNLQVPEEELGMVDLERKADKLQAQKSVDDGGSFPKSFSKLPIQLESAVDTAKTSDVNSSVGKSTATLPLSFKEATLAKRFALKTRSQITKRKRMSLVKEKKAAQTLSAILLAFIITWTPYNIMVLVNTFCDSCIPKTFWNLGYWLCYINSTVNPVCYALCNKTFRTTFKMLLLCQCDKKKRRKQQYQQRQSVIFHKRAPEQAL

CCOC(=O)N1C2CCC1CC(N1CCC(c3cc(-c4ccc5c(c4)OCO5)ccc3OC)CC1)C2 (stereo not shown) [Compound 387]
Emax (M1 muscarinic receptor; [1]): 25 to 100%
M1 Activity (M1 muscarinic receptor): + (activity was measured to be greater than 5.0 μM)
Emax (M3 muscarinic receptor; [1]): < 25%
M3 Activity (M3 muscarinic receptor): + (activity was measured to be greater than 5.0 μM)
Emax (M2 muscarinic receptor; [1]): < 25%
M2 Activity (M2 muscarinic receptor): + (activity was measured to be greater than 5.0 μM)
Emax (M4 muscarinic receptor; [1]): 25 to 100%
M4 Activity (M4 muscarinic receptor): ++ (activity was measured to be from 1.0 μM to 5.0 μM)

CNC(=O)c1ccc(-c2ccc(OC)c(C3CCN([C@H]4C[C@H]5CC[C@H]4C5)CC3)c2)cc1 [Compound 388]
Emax (M1 muscarinic receptor; [1]): < 25%
M1 Activity (M1 muscarinic receptor): + (activity was measured to be greater than 5.0 μM)
Emax (M3 muscarinic receptor; [1]): < 25%
M3 Activity (M3 muscarinic receptor): + (activity was measured to be greater than 5.0 μM)
Emax (M2 muscarinic receptor; [1]): < 25%
M2 Activity (M2 muscarinic receptor): + (activity was measured to be greater than 5.0 μM)
Emax (M4 muscarinic receptor; [1]): 25 to 100%
M4 Activity (M4 muscarinic receptor): +++ (activity was measured to be less than 1.0 μM)

COc1ccc(-c2ccc(C(=O)Nc3nccs3)cc2)cc1C1CCN(C2CCOCC2)CC1 [Compound 389]
Emax (M1 muscarinic receptor; [1]): < 25%
M1 Activity (M1 muscarinic receptor): + (activity was measured to be greater than 5.0 μM)
Emax (M3 muscarinic receptor; [1]): < 25%
M3 Activity (M3 muscarinic receptor): + (activity was measured to be greater than 5.0 μM)
Emax (M2 muscarinic receptor; [1]): < 25%
M2 Activity (M2 muscarinic receptor): + (activity was measured to be greater than 5.0 μM)
Emax (M4 muscarinic receptor; [1]): < 25%
M4 Activity (M4 muscarinic receptor): + (activity was measured to be greater than 5.0 μM)

CCOC(=O)N1C2CCC1CC(N1CCC(OC)(c3cc(Cl)ccc3OC)CC1)C2 (stereo not shown) [Compound 390]
Emax (M1 muscarinic receptor; [1]): 25 to 100%
M1 Activity (M1 muscarinic receptor): +++ (activity was measured to be less than 1.0 μM)
Emax (M3 muscarinic receptor; [1]): < 25%
M3 Activity (M3 muscarinic receptor): + (activity was measured to be greater than 5.0 μM)
Emax (M2 muscarinic receptor; [1]): < 25%
M2 Activity (M2 muscarinic receptor): + (activity was measured to be greater than 5.0 μM)
Emax (M4 muscarinic receptor; [1]): 25 to 100%
M4 Activity (M4 muscarinic receptor): +++ (activity was measured to be less than 1.0 μM)

O=C(NCc1cccc(C2CCN(C3C[C@H]4CC[C@H]3C4)CC2)c1)C1CC1 (stereo partly shown) [Compound 391]
Emax (M1 muscarinic receptor; [1]): < 25%
M1 Activity (M1 muscarinic receptor): + (activity was measured to be greater than 5.0 μM)
Emax (M3 muscarinic receptor; [1]): < 25%
M3 Activity (M3 muscarinic receptor): + (activity was measured to be greater than 5.0 μM)
Emax (M2 muscarinic receptor; [1]): < 25%
M2 Activity (M2 muscarinic receptor): + (activity was measured to be greater than 5.0 μM)
Emax (M4 muscarinic receptor; [1]): < 25%
M4 Activity (M4 muscarinic receptor): + (activity was measured to be greater than 5.0 μM)

CCOC(=O)N1CCC(N2CCC(c3cc(Cl)ccc3OC)CC2)CC1 [Compound 392]
Emax (M1 muscarinic receptor; [1]): 25 to 100%
M1 Activity (M1 muscarinic receptor): +++ (activity was measured to be less than 1.0 μM)
Emax (M3 muscarinic receptor; [1]): 25 to 100%
M3 Activity (M3 muscarinic receptor): +++ (activity was measured to be less than 1.0 μM)
Emax (M2 muscarinic receptor; [1]): 25 to 100%
M2 Activity (M2 muscarinic receptor): +++ (activity was measured to be less than 1.0 μM)
Emax (M4 muscarinic receptor; [1]): 25 to 100%
M4 Activity (M4 muscarinic receptor): +++ (activity was measured to be less than 1.0 μM)

COc1ccc(-c2ccc(OC)c(C3CCN([C@@H]4C[C@H]5CC[C@H]4C5)CC3)c2)cc1 [Compound 393]
Emax (M1 muscarinic receptor; [1]): < 25%
M1 Activity (M1 muscarinic receptor): + (activity was measured to be greater than 5.0 μM)
Emax (M3 muscarinic receptor; [1]): < 25%
M3 Activity (M3 muscarinic receptor): + (activity was measured to be greater than 5.0 μM)
Emax (M2 muscarinic receptor; [1]): < 25%
M2 Activity (M2 muscarinic receptor): + (activity was measured to be greater than 5.0 μM)
Emax (M4 muscarinic receptor; [1]): 25 to 100%
M4 Activity (M4 muscarinic receptor): + (activity was measured to be greater than 5.0 μM)

COc1ccc(Cl)cc1C1(O)CCN(C[C@H]2C[C@H]3C=C[C@H]2C3)CC1 [Compound 394]
Emax (M1 muscarinic receptor; [1]): < 25%
M1 Activity (M1 muscarinic receptor): + (activity was measured to be greater than 5.0 μM)
Emax (M3 muscarinic receptor; [1]): < 25%
M3 Activity (M3 muscarinic receptor): + (activity was measured to be greater than 5.0 μM)
Emax (M2 muscarinic receptor; [1]): 25 to 100%
M2 Activity (M2 muscarinic receptor): + (activity was measured to be greater than 5.0 μM)
Emax (M4 muscarinic receptor; [1]): 25 to 100%
M4 Activity (M4 muscarinic receptor): +++ (activity was measured to be less than 1.0 μM)

Clc1cccc(-c2ccccc2C2CCN([C@H]3C[C@H]4CC[C@H]3C4)CC2)c1 [Compound 395]
Emax (M1 muscarinic receptor; [1]): < 25%
M1 Activity (M1 muscarinic receptor): + (activity was measured to be greater than 5.0 μM)
Emax (M3 muscarinic receptor; [1]): < 25%
M3 Activity (M3 muscarinic receptor): + (activity was measured to be greater than 5.0 μM)
Emax (M2 muscarinic receptor; [1]): < 25%
M2 Activity (M2 muscarinic receptor): + (activity was measured to be greater than 5.0 μM)
Emax (M4 muscarinic receptor; [1]): 25 to 100%
M4 Activity (M4 muscarinic receptor): + (activity was measured to be greater than 5.0 μM)

COc1ccc(Cl)cc1C1CCN(C2CCC(=NOCc3ccccc3)CC2)CC1 (stereo not shown) [Compound 396]
M1 Efficacy (M1 muscarinic receptor; [1]): ++ (efficacy was calculated to be from 100% to 25%)
M1 Activity (M1 muscarinic receptor): + (activity was measured to be greater than 5.0 μM)
M3 Efficacy (M3 muscarinic receptor; [1]): + (efficacy was calculated to be less than 25%)
M3 Activity (M3 muscarinic receptor): + (activity was measured to be greater than 5.0 μM)
M2 Efficacy (M2 muscarinic receptor; [1]): + (efficacy was calculated to be less than 25%)
M2 Activity (M2 muscarinic receptor): + (activity was measured to be greater than 5.0 μM)
M4 Efficacy (M4 muscarinic receptor; [1]): ++ (efficacy was calculated to be from 100% to 25%)
M4 Activity (M4 muscarinic receptor): +++ (activity was measured to be less than 1.0 μM)

COc1ccccc1C1CCN(C2CCCC(C)C2)CC1 (stereo not shown) [Compound 398]
Emax (M1 muscarinic receptor; [1]): 25 to 100%
M1 Activity (M1 muscarinic receptor): + (activity was measured to be greater than 5.0 μM)
Emax (M3 muscarinic receptor; [1]): < 25%
M3 Activity (M3 muscarinic receptor): + (activity was measured to be greater than 5.0 μM)
Emax (M2 muscarinic receptor; [1]): < 25%
M2 Activity (M2 muscarinic receptor): + (activity was measured to be greater than 5.0 μM)
Emax (M4 muscarinic receptor; [1]): 25 to 100%
M4 Activity (M4 muscarinic receptor): +++ (activity was measured to be less than 1.0 μM)

COc1ccc(-c2ccc(CC#N)cc2)cc1C1CCN(C2CCCCC2)CC1 [Compound 399]
Emax (M1 muscarinic receptor; [1]): < 25%
M1 Activity (M1 muscarinic receptor): + (activity was measured to be greater than 5.0 μM)
Emax (M3 muscarinic receptor; [1]): < 25%
M3 Activity (M3 muscarinic receptor): + (activity was measured to be greater than 5.0 μM)
Emax (M2 muscarinic receptor; [1]): < 25%
M2 Activity (M2 muscarinic receptor): + (activity was measured to be greater than 5.0 μM)
Emax (M4 muscarinic receptor; [1]): 25 to 100%
M4 Activity (M4 muscarinic receptor): ++ (activity was measured to be from 1.0 μM to 5.0 μM)

COc1ccc(-c2ccc(NC(C)=O)cc2)cc1C1CCN([C@H]2C[C@H]3CC[C@H]2C3)CC1 [Compound 400]
Emax (M1 muscarinic receptor; [1]): < 25%
M1 Activity (M1 muscarinic receptor): + (activity was measured to be greater than 5.0 μM)
Emax (M3 muscarinic receptor; [1]): < 25%
M3 Activity (M3 muscarinic receptor): + (activity was measured to be greater than 5.0 μM)
Emax (M2 muscarinic receptor; [1]): < 25%
M2 Activity (M2 muscarinic receptor): + (activity was measured to be greater than 5.0 μM)
Emax (M4 muscarinic receptor; [1]): < 25%
M4 Activity (M4 muscarinic receptor): + (activity was measured to be greater than 5.0 μM)

COc1ccc(-c2ccc(C(=O)NC3CC3)cc2)cc1C1CCN([C@H]2C[C@H]3CC[C@H]2C3)CC1 [Compound 401]
Emax (M1 muscarinic receptor; [1]): < 25%
M1 Activity (M1 muscarinic receptor): + (activity was measured to be greater than 5.0 μM)
Emax (M3 muscarinic receptor; [1]): < 25%
M3 Activity (M3 muscarinic receptor): + (activity was measured to be greater than 5.0 μM)
Emax (M2 muscarinic receptor; [1]): < 25%
M2 Activity (M2 muscarinic receptor): + (activity was measured to be greater than 5.0 μM)
Emax (M4 muscarinic receptor; [1]): < 25%
M4 Activity (M4 muscarinic receptor): + (activity was measured to be greater than 5.0 μM)
